Experimental data published in patent publication US6355630B1, “Estra-1,3,5(10)-triene-7α-thioethers” (priority 1997, dated 2002).
Where “and” joins values, the source holds several entries; their conditions need not be identical. Identical values can stand only once. Like-named read-outs stand apart in the source and are kept apart here.

What was measured:
[1] = tested on: Ishikawa uterine cells; experiment: Ishikawa cell alkaline phosphatase test procedure; assay type: cell-based, human; settings: for EC50: reference standards, read-out: ED50, estrogenic activity by the alkaline phosphatase method; for Alkaline phosphatase activity, percent of response related to 1 nM 17β-estradiol: 48 h
Experimental: Ishikawa Cell Alkaline Phosphatase Test Procedure
Cell Maintenance and Treatment
Ishikawa cells were maintained in DMEM/F12 (50%:50%) containing phenol red+10% fetal bovine serum and the medium was supplemented with 2 mM Glutamax, 1% Pen/Strap and 1 mM sodium pyruvate. Five days prior to the beginning of each evaluation (treatment of cells) the medium was changed to phenol red-free DMEM/F12+10% dextran coated charcoal stripped serum. On the day before treatment, cells were harvested using 0.5% trypsin/EDTA and plated at a density of 5×10^4 cells/well in 96-well tissue culture plates. […] Cells were treated for 48 h prior to assay. […] Sample population for at each dose was n=8.
Alkaline Phosphatase Test Procedure
At the end of 48 h the media was aspirated and cells were washed three times with phosphate buffered saline (PBS); 50 μL of lysis buffer (0.1 M Tris-HCl, pH 9.8, 0.2% Triton X-100) was added to each well. Plates were placed at −80° C. for a minimum of 15 minutes. Plates were thawed at 37° C. followed by the addition of 150 μL of 0.1 M Tris-HCl, pH 9.8, containing 4 mM para-nitrophenylphosphate (pNPP) to each well (final concentration, 3 mM pNPP).
Absorbance and slope calculations were made using the KineticCalc Application program (Bio-Tek Instruments, Inc., Winooski, Vt.). Results are expressed as the mean +/−S.D. of the rate of enzyme reaction (slope) averaged over the linear portion of the kinetic reaction curve (optical density readings every 5 minutes for 30 minutes absorbance reading).
The four compounds were used as reference standards:
A description of these methods is described by Holinka, C. F., Hata, H., Kuramoto, H. and Gurpide, E. (1986) Effects of steroid hormones and antisteroids on alkaline phosphatase activity in human endometrial cancer cells (Ishikawa Line). Cancer Research, 46:2771-2774, and by Littlefield, B. A., Gurpide, E., Markiewicz, L., McKinley, B. and Hochberg, R. B. (1990) A simple and sensitive microtiter plate estrogen bioassay based on stimulation alkaline phosphatase in Ishikawa cells; Estrogen action of D5 adrenal steroids. Endocrinology, 6:2757-2762.

[2] = tested on: rat uterus; experiment: Rat uterotrophic/antiuterotrophic test procedure; assay type: in vivo; settings: 1 ug 17β-estradiol, daily ip, 4-day immature rat
Experimental: Rat Uterotrophic/Antiuterotrophic Test Procedure
The estrogenic and antiestrogenic properties of the compounds were determined in a 4-day immature rat uterotrophic assay (as described previously by L. J. Black and R. L. Goode, Life Sciences, 26, 1453 (1980)). Immature Sprague-Dawley rats (female, 18 days old) were tested in groups of six. […] On day 4 the animals were sacrificed by CO2 asphyxiation and their uteri were removed and stripped of excess lipid, any fluid removed and the wet weight determined. A small section of one horn was submitted for histology and the remainder used to isolate total RNA in order to evaluate complement component 3 gene expression.
Representative compounds of this invention were evaluated in the rat uterotrophic/antiuterotrophic assay to determine their in vivo effects on the rat uterus.

[3] = biological target: T1, human estrogen receptor (Homo sapiens, UniProt P03372); experiment: In vitro estrogen receptor binding test procedure ([3H]-17β-estradiol competition)
T1 construct: expressed in transfected cells; host or cells: Chinese Hamster ovary (CHO) cells; ribosome-free cytosol
T1 sequence (P03372 1-595): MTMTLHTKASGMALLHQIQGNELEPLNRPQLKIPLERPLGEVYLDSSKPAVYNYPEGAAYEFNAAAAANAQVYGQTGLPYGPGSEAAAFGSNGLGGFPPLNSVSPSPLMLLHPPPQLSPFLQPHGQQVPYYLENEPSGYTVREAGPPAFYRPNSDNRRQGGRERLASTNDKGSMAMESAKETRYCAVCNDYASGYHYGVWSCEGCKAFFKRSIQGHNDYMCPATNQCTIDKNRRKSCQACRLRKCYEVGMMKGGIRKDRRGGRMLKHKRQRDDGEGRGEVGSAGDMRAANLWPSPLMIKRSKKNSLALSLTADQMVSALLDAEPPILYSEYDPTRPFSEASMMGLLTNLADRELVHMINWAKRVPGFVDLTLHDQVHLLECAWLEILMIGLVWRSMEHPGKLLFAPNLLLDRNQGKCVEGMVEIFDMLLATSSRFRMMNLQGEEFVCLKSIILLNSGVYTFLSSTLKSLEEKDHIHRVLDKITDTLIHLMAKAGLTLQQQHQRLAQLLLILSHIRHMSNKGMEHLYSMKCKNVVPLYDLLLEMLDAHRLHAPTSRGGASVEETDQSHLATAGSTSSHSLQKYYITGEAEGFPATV
Experimental: In vitro Estrogen Receptor Binding Test Procedure
Chinese Hamster ovary (CHO) cells overexpressing the estrogen receptor were grown in […] dishes in DMEM+10% dextran coated charcoal, stripped fetal bovine serum. The plates were washed twice with PBS and once with 10 mM Tris-HCl, pH 7.4, 1 mM EDTA. Cells were harvested by scraping the surface and then the cell suspension was placed on ice. Cells were disrupted with a hand-held motorized tissue grinder using two, 10-second bursts. The crude preparation was centrifuged at 12,000 g for 20 minutes followed by a 60 minute spin at 100,000 G to produce a ribosome free cytosol. The cytosol was then frozen and stored at −80° C. Protein concentration of the cytosol was estimated using the BCA assay with reference standard protein.
Binding Test Procedure Conditions
100 uG/100 uL of the receptor preparation was aliquoted per well. […] The plate was incubated at room temperature for 2.5 h. At the end of this incubation period 150 uL of ice-cold dextran coated charcoal (5% activated charcoal coated with 0.05% 69K dextran) was added to each well and the plate was immediately centrifuged at 99 g for 5 minutes at 4° C. 200 uL of the supernatant solution was then removed for scintillation counting. Samples were counted to 2% or 10 minutes, whichever occurs first. […] Also, wells containing radioactivity but no cytosol were processed with charcoal to estimate unremovable DPM of [^3H] […] 96-well plates were used because they have proven to bind the least amount of estradiol.
Counts per minute (CPM) of radioactivity were automatically converted to disintegrated per minute (DPM) by the Beckman LS 7500 Scintillation Counter using a set of quenched standards to generate a H# for each sample. To calculate the % of estradiol binding in the presence of 100 or 500 fold competitor the following formula was applied:
((DPM sample−DPM not removed by charcoal/(DPM estradiol−DPM not removed by charcoal))×100%=% of estradiol binding
For the generation of IC50 curves, % binding is plotted vs compound. […] Values are reported as IC50 values. […] For a description of these methods, see Hulme, E. C., ed. 1992. Receptor-Ligand Interactions: A Practical Approach. IRL Press, New York.(see especially chapter 8).
Compounds were tested for their ability to displace estradiol in a human ER-receptor preparation as described above.

[4] = 1 uM compound + 1 nM E2, antagonist mode

Structure (SMILES) | Alkaline phosphatase activity, percent of response related to 1 nM 17β-estradiol ([1]; 0.01 uM compound, agonist mode) [%] | Alkaline phosphatase activity, percent of response related to 1 nM 17β-estradiol ([1]; 0.1 uM compound, agonist mode) [%] | Alkaline phosphatase activity, percent of response related to 1 nM 17β-estradiol [1, 4] [%] | Alkaline phosphatase activity, percent of response related to 1 nM 17β-estradiol ([1]; 1 uM compound, agonist mode) [%] | other results
C[C@]12CC[C@@H]3c4ccc(O)cc4CC[C@H]3[C@@H]1CC[C@H]2O [17α-estradiol, reference compound] |  |  |  |  | EC50 [1]: 1.42 nM
C[C@]12CC[C@@H]3c4ccc(O)cc4CC[C@H]3[C@@H]1CC[C@@H]2O [17β-estradiol, reference compound] |  |  |  |  | Uterine wet weight [2]: 87.6 mg and 82.1 mg and 92.6 mg and 83.8 mg and 94.6 mg; EC50 ([1]; Homo sapiens, Ishikawa): 0.03 nM
CC(=O)O[C@H]1CC[C@H]2[C@@H]3[C@H](Sc4ccc(O)cc4)C(=O)c4cc(O)ccc4[C@H]3CC[C@]12C [Example 1, (7α,17β) 17-Acetoxy-3-hydroxy-7-(4-hydroxyphenyl)thio-estra-1,3,5(10)-triene-6-one] | 7 | 9 | 76 | 29 | 
CC(=O)O[C@H]1CC[C@H]2[C@@H]3[C@H](Sc4ccc(Br)cc4)C(=O)c4cc(O)ccc4[C@H]3CC[C@]12C [Example 5, (7α,17β) 17-Acetoxy-7-(4-bromophenyl)thio-3-hydroxy-estra-1,3,5(10)-trien-6-one] | 58 | 108 | 106 | 104 | Behaviour in the uterine cell line (agonist/antagonist) ([1]; in words, from Table 2): fully efficacious agonists
C[C@]12CC[C@@H]3c4ccc(O)cc4[C@@H](O)[C@@H](Sc4ccc(Br)cc4)[C@H]3[C@@H]1CC[C@@H]2O [Example 7, (6α,7α,17β) 7-(4-Bromophenyl)thio-estra-1,3,5(10)-triene-3,6,17-triol] | 46 | 58 | 98 | 66 | IC50 [3]: 800 nM
COC(=O)C=Cc1ccc(S[C@@H]2Cc3cc(O)ccc3[C@H]3CC[C@]4(C)[C@@H](OC(C)=O)CC[C@H]4[C@@H]32)cc1 [Example 9, (7α,17β) 7-{4-[2-(Methoxycarbonyl)-ethenyl]phenyl}thio-estra-1,3,5(10)-triene-3,17-diol-17-acetate] | 1 | 33 | 59 | 61 | Receptor IC50 ([3]; displacement of [3H]17β-estradiol, CHO cell cytosol ER preparation): No Binding; Competition for the human estrogen receptor ([3]; in words, compounds with 17β-acetate): competed less effectively
CN(C)C(=O)/C=C/c1ccc(S[C@@H]2Cc3cc(O)ccc3[C@H]3CC[C@]4(C)[C@@H](O)CC[C@H]4[C@@H]32)cc1 [Example 10, (7α,17β) 7-{4-[(E)-2-(N,N-Dimethylcarbamoyl)-ethenyl]phenyl}thio-estra-1,3,5(10)-triene-3,17-diol] | 0 | 12 | 57 | 28 | 
C[C@]12CC[C@@H]3c4ccc(O)cc4C[C@@H](Sc4ccc(C=CC(=O)O)cc4)[C@H]3[C@@H]1CC[C@@H]2O [Example 11, (7α,17β) 7-{4-[2-(Carboxy)-ethenyl]phenyl}thio-estra-1,3,5(10)-triene-3,17-diol] | 0 | 23 | 50 | 21 | IC50 [3]: 1500 nM
CC12CCC3c4ccc(O)cc4CC(Sc4ccc(-c5ccc(C=O)cc5)cc4)C3C1CCC2O (stereo not drawn) [Example 12, (7α,17β) 7-(4-(4′-Formylbiphenyl)]thio-estra-1,3,5(10)-triene-3,17-diol] | 17 | 67 | 92 | 89 | IC50 ([3]; read-out: Receptor IC50): 300 nM
COc1ccc2c(c1)CC(Sc1ccc(OCCN3CCCCC3)cc1)C1C2CCC2(C)C(O)CCC12 (stereo not drawn) [Example 15, (7α,17β) 3-Methoxy-7-{4-[2-(piperdin-1-yl)]ethoxyphenyl}thio-estra-1,3,5(10)-triene-17-ol] | 0 | 0 | 69 | 22 | 
C[C@]12CC[C@@H]3c4ccc(O)cc4CC[C@H]3[C@@H]1C[C@@H](O)[C@@H]2O [estriol, reference compound] |  |  |  |  | EC50 ([1]; Homo sapiens, Ishikawa): 0.13 nM
C[C@]12CC[C@@H]3c4ccc(O)cc4CC[C@H]3[C@@H]1CCC2=O [estrone, reference compound] |  |  |  |  | EC50 ([1]; Homo sapiens, Ishikawa): 0.36 nM
